# In patent US20220031871A1, “ANTIBODIES FOR CHELATED RADIONUCLIDES AND CLEARING AGENTS” (Hoffmann-La Roche Inc., priority 2018, published 2022):
# Marks after values point to notes of the source that are not given here.
# What was measured:
# Assay type in all cases: in vivo, SCID mice
# [1] = tested on: BxPC3 tumors; assay: Protocol 93a: efficacy and biodistribution of CEA-PRIT
# Experimental: (§1) The bispecific antibodies were compared side-by-side in single- and double-cycle treatment regimens.
# (§2) Groups A-G represent the treated mice that were followed up for assessment of efficacy, whereas groups H-L comprise mice that were sacrificed for biodistribution purposes 24 h after their last ^212Pb-DOTAM injection.
# (§3) Solid xenografts were established by subcutaneous injection of cells in RPMI (BxPC3) or DMEM (LS174T) media mixed 1:1 with Corning® Matrigel® basement membrane matrix (growth factor reduced; cat No. 354230).
# For protocol 93a, mice (age 7 weeks) were injected s.c. into the right flank with 5×10^6 BxPC3 cells (passage 33) in 100 μl RPMI/Matrigel. Twelve days after tumor cell injection, mice were sorted into experimental groups with an average tumor volume of 235 mm^3.
# (§4) To minimize re-ingestion of radioactive urine/feces after treatment cycle 1, cages were changed 4 hours after ^212Pb-DOTAM administration, and then again at 24 h p.i. For cycle 2, mice were placed in cages with grilled floors for 4 hours after ^212Pb-DOTAM administration, before being transferred to new cages with standard bedding. All cages were then changed at 24 h p.i., as after cycle 1. The tumor development in the mice was followed through repeated calipering three times a week. If needed, additional calipering was performed in the gaps between scheduled measurements. The body weight of the animals was measured repeatedly in the same fashion. Mice whose tumor volume reached 3000 mm^3 were immediately euthanized. Other factors taken into account for euthanasia for ethical reasons were body weight loss, tumor status (e.g. ulceration) and general appearance of the animal. Wet food was provided to all animals starting from five days after the radioactive injection if mandated by an acute loss of body weight (collective or individual) due to radiation-induced toxicity, until all individuals had recovered sufficiently.
# (§5) The following organs and tissues were harvested from groups A-G at the time of euthanasia: bladder, ovaries, liver, spleen, kidneys, femur (including bone marrow), colon, jejunum, stomach, and tumor. Unexpected or abnormal conditions were noted and photographed. Tissues were immediately put in 10% neutral buffered formalin (4° C.) and then transferred to PBS (4° C.) after 5 days. The formalin-fixed samples were then shipped to Roche Pharma Research and Early Development, Roche Innovation Center Basel, for further processing and analysis.
# (§6) Mice in groups H, J, and L were sacrificed and necropsied 24 hours after their first and only injection of ^212Pb-DOTAM; groups I and K were sacrificed and necropsied 24 hours after their second ^212Pb-DOTAM injection. The following organs and tissues were harvested: blood, bladder, small intestine, colon, spleen, pancreas, kidneys, liver, lung, heart, femoral bone, muscle, tail, and tumor. Collected samples were weighed and measured for radioactivity, and the percent injected dose per gram of tissue (% ID/g) subsequently calculated, including corrections for decay and background.
# [2] = tested on: LS174T tumors; assay: Protocol 93b: efficacy and biodistribution of CEA-PRIT
# Experimental: as §1, §2, §3
# For protocol 93b, mice (age 9 weeks) were injected s.c. into the right flank with 1×10^6 LS174T cells (passage 26) in 100 μl DMEM/Matrigel. Three days after tumor cell injection, mice were sorted into experimental groups with an average tumor volume of 150 mm^3.
# as §4, §5, §6
# [3] = tested on: s.c. BxPC3 tumors; assay: Protocol 146: ^212Pb-DOTAM distribution after PRIT, 5 min to 48 h
# Experimental: Protocol 146 was designed to provide in vivo ^212Pb-DOTAM distribution data after PRIT for estimations of the absorbed radioactive dose to tumor and normal tissues, in SCID mice carrying s.c. BxPC3 tumors. The quenching of ^212Pb-DOTAM was performed using Ca (see example 34).
# Pretargeting was performed by injection of CEA-DOTAM BsAb, followed 7 days later by the CA. After 24 hours, the ^212Pb-DOTAM was administered. Groups of mice were sacrificed at multiple time points from 5 minutes to 48 hours after the radioactive injection, and blood and organs harvested for radioactive measurement. […] Absorbed doses were finally calculated through established methods using the resulting time-activity curves. […]
# Mice in group E and F were individually housed (i.e. one mouse per cage) in grilled-floor metabolic cages. Urine and feces were collected from each cage 2, 6, and 24 hours after the radioactive injection, and the individual samples subsequently measured for radioactivity. […]
# Blood/serum was collected from all mice through retro-orbital bleeding before termination. After euthanasia, the following additional organs and tissues were harvested for radioactivity measurement and calculation of % ID/g: bladder, uterus, small intestine, colon, spleen, pancreas, kidneys, stomach, liver, lung, heart, brain, femoral bone, skin, muscle, abdominal fat, tail, and tumor.
# [4] = labelled group 30 + 30 μCi 212Pb-DOTAM, multiple test level = 0.00238
compound,measurement,setting,value
NC(=O)CN1CCN(CC(N)=O)CCN(CC(N)=O)CCN(CC(N)=O)CC1.[212Pb+2] [^212Pb-DOTAM],tumor growth inhibition (TGI),"[1]; day 47, 30+30 μCi, compared with PBS",15.8%
same,"Pairwise Log-Rank Test, survival, p vs PRIT-0175 30 + 30 μCi",[1]; [4],0.0032*
same,"Pairwise Log-Rank Test, survival, p vs PRIT-0213 30 + 10 μCi",[1]; [4],0.0001*
same,"Pairwise Log-Rank Test, survival, p vs PRIT-0213 30 + 30 μCi",[1]; [4],0.8474
same,"Pairwise Log-Rank Test, survival, p vs PRIT-0214 30 + 10 μCi",[1]; [4],<.0001*
same,"Pairwise Log-Rank Test, survival, p vs PRIT-0214 30 + 30 μCi",[1]; [4],0.0685
same,"Pairwise Log-Rank Test, survival, p vs Vehicle (PBS)",[1]; [4],0.5271
same,"Pairwise Wilcoxon Test, survival, p vs PRIT-0175 30 + 30 μCi",[1]; [4],0.0042*
same,"Pairwise Wilcoxon Test, survival, p vs PRIT-0213 30 + 10 μCi",[1]; [4],0.0004*
same,"Pairwise Wilcoxon Test, survival, p vs PRIT-0213 30 + 30 μCi",[1]; [4],0.8704
same,"Pairwise Wilcoxon Test, survival, p vs PRIT-0214 30 + 10 μCi",[1]; [4],0.0002*
same,"Pairwise Wilcoxon Test, survival, p vs PRIT-0214 30 + 30 μCi",[1]; [4],0.0827
same,"Pairwise Wilcoxon Test, survival, p vs Vehicle (PBS)",[1]; [4],0.1439
same,TGI,"[2]; day 22, 30+30 μCi, compared with PBS",64.7%
same,"Pairwise Log-Rank Test, survival, p vs PRIT-0175 30 + 30 μCi",[2]; [4],0.0090*
same,"Pairwise Log-Rank Test, survival, p vs PRIT-0213 30 + 30 μCi",[2]; [4],<0.0001*
same,"Pairwise Log-Rank Test, survival, p vs PRIT-0213 30 μCi",[2]; [4],<.0001*
same,"Pairwise Log-Rank Test, survival, p vs PRIT-0214 30 + 30 μCi",[2]; [4],<.0001*
same,"Pairwise Log-Rank Test, survival, p vs PRIT-0214 30 μCi",[2]; [4],0.0091*
same,"Pairwise Log-Rank Test, survival, p vs Vehicle (PBS)",[2]; [4],0.0034*
same,"Pairwise Wilcoxon Test, survival, p vs PRIT-0175 30 + 30 μCi",[2]; [4],0.0417*
same,"Pairwise Wilcoxon Test, survival, p vs PRIT-0213 30 + 30 μCi",[2]; [4],0.0002*
same,"Pairwise Wilcoxon Test, survival, p vs PRIT-0213 30 μCi",[2]; [4],0.0002*
same,"Pairwise Wilcoxon Test, survival, p vs PRIT-0214 30 + 30 μCi",[2]; [4],0.0002*
same,"Pairwise Wilcoxon Test, survival, p vs PRIT-0214 30 μCi",[2]; [4],0.0160*
same,"Pairwise Wilcoxon Test, survival, p vs Vehicle (PBS)",[2]; [4],0.0111*
same,accumulation of radioactivity in tumor,"[3]; 5 minutes after injection, pretargeted by CEA-DOTAM BsAb, CA",17 % ID/g
same,accumulation of radioactivity in tumor,"[3]; by 6 hours p.i., remaining for at least 48 hours",over 40%
